According to US6962920B2, “Pyrimidine derivatives and methods of making and using these derivatives” (Duquesne University of the Holy Ghost, priority 1992, dated 2005):
Like-named read-outs stand apart in the source and are kept apart here.

Assays:
RL DHFR = molecular target: T1, RL DHFR (Rattus norvegicus, UniProt Q920D2); assay: Inhibition of DHFR from rat liver; assay type: biochemical
T1 construct: Toxoplasmosis gondii (Tg) and rat liver (RL); from tissue; host or cells: rat liver
T1 sequence (Q920D2 1-187): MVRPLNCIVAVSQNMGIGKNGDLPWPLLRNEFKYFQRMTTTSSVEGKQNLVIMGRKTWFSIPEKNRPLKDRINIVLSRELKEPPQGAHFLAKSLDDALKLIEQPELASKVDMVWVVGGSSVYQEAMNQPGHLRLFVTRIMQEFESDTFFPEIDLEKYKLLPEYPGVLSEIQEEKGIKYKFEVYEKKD
Description: (§1) The selectivity ratio is a measure of the selectivity of a compound for Pc DHFR or Tg DHFR and is expressed as the IC50 value of the DHFR from rate liver (RL) divided by the IC50 value of either the Pc DHFR or the Tg DHFR, depending on which organism the compounds are being tested against. For example, the selectivity ratio of a compound is calculated by the following formula: [formula]

Pc DHFR [1] = molecular target: T2, Pc DHFR (Pneumocystis carinii, UniProt P16184); assay: biochemical
T2 sequence (P16184 1-206): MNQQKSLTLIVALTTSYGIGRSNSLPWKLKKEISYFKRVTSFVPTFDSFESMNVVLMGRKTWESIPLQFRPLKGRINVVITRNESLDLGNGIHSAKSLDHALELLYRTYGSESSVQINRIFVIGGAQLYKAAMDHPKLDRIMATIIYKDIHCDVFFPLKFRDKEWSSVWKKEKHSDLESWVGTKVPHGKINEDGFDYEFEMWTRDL

Pc DHFR [2] = molecular target: T2, Pc DHFR; assay type: biochemical; details: for Selectivity ratio rl/pc: IC50 rlDHFR/IC50 pcDHFR
Description: as §1

Tg DHFR = molecular target: T3, Tg DHFR (Toxoplasma gondii, UniProt Q07422); assay: biochemical; assay type: biochemical; details: for rl/tg: selectivity ratio
T3 sequence (Q07422 1-610): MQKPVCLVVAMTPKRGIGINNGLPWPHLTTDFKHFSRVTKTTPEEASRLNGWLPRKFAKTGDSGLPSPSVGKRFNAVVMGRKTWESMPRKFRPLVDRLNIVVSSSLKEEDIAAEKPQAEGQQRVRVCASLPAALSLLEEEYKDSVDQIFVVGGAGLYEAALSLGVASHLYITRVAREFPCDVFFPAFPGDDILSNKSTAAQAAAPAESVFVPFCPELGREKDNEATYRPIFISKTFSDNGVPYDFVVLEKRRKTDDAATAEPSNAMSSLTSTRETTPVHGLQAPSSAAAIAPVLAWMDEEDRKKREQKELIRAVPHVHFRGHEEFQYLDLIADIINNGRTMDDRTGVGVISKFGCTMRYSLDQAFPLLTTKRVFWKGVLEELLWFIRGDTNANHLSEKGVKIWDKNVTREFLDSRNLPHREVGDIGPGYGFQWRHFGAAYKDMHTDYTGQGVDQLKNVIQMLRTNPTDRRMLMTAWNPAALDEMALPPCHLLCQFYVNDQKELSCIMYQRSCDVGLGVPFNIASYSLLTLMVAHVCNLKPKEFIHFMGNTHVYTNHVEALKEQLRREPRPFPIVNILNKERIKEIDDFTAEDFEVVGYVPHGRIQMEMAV
Description: as §1

[3] = molecular target: E-coli thymidylate synthase (ecTS) (Escherichia coli, UniProt P0A884); assay: Inhibition of E. coli thymidylate synthase; assay type: biochemical; details: for % in parentheses after the > value, ecTS: Table 22, at the concentration given
Description: All of the compounds were tested against human cells, L. casei, E. coli, and S. faecium.

[4] = Table 16, read-out: RL DHFR IC50
[5] = Table 16, read-out: Pc DHFR IC50
[6] = Table 25, read-out: Inhibitor Concentrations (IC50) pcDHFR
[7] = Table 25, read-out: Inhibitor Concentrations (IC50) rlDHFR
[8] = Table 16, read-out: Tg DHFR IC50
[9] = Table 25, read-out: Inhibitor Concentrations (IC50) tgDHFR
[10] = Table 22, read-out: pcDHFR IC50
[11] = Table 22, read-out: rlDHFR IC50
[12] = Table 22, read-out: tgDHFR IC50

Sequence of E-coli thymidylate synthase (ecTS) (P0A884 whole entry): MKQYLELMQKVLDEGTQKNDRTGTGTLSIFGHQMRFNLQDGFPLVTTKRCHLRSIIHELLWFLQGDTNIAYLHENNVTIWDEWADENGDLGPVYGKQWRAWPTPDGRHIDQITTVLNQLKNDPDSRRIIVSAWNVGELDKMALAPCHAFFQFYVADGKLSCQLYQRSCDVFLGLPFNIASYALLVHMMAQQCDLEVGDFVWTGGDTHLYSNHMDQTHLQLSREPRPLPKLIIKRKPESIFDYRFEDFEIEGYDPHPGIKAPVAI

| SMILES | IC50 (Pc DHFR [1]; [10]) [µM] | IC50 (RL DHFR; [11]) [µM] | IC50 (Tg DHFR; [12]) [µM] | rl/tg (Tg DHFR; Table 22) | IC50 [3] [µM] | % in parentheses after the > value, ecTS [3] [%] | further results |
| --- | --- | --- | --- | --- | --- | --- | --- |
| Nc1nc(N)c2c(CNc3ccccc3-c3ccccc3)coc2n1 [Compound 167, 2,4-Diamino-5-[(2′-phenylanilino)methyl]furo[2,3-d]pyrimidine] |  |  |  |  |  |  | IC50 (RL DHFR; [4]): 187 µM |
| Nc1nc(N)c2c(CNc3cc(Cl)ccc3Cl)coc2n1 [Compound 169, 2,4-Diamino-5-[(2′,5′-dichloroanilino)methyl]furo[2,3-d]pyrimidine] |  |  |  |  |  |  | IC50 (Pc DHFR [1]; [5]): 50.9 µM; IC50 (Pc DHFR [1]; [6]): 50.9 µM; Selectivity ratio rl/pc (Pc DHFR [2]): 1.4; Selectivity Ratio RL/Pc (Pc DHFR [2]; Table 16): 1.4; IC50 (RL DHFR; [7]): 71.9 µM |
| CN(Cc1coc2nc(N)nc(N)c12)c1ccc(Cl)c(Cl)c1 [Compound 171, 2,4-Diamino-5-[(N-methyl-3′,4′-dichloroanilino)methyl]furo[2,3-d]pyrimidine] |  |  |  |  |  |  | IC50 (Pc DHFR [1]; [5]): 44.8 µM; IC50 (Pc DHFR [1]; [6]): 44.8 µM; IC50 (RL DHFR; [4]): > 27 µM; IC50 (RL DHFR; [7]): > 27 µM; IC50 (Tg DHFR; [8]): > 27 µM; IC50 (Tg DHFR; [9]): > 27 µM |
| CN(Cc1coc2nc(N)nc(N)c12)c1cc(Cl)c(Cl)c(Cl)c1 [Compound 172, 2,4-Diamino-5-[(N-methyl-3′,4′,5′-trichloroanilino)methyl]furo[2,3-d]-pyrimidine] |  |  |  |  |  |  | IC50 (Pc DHFR [1]; [5]): 284 µM; IC50 (Pc DHFR [1]; [6]): 284 µM |
| COc1cccc(NCc2coc3nc(N)nc(N)c23)c1 [Compound 175, 2,4-Diamino-5-[(3′-methoxyanilino)methyl]furo[2,3-d]-pyrimidine] |  |  |  |  |  |  | IC50 (Pc DHFR [1]; [5]): > 31.3 µM; IC50 (Pc DHFR [1]; [6]): > 31.3 µM; IC50 (RL DHFR; [4]): > 31.3 µM; IC50 (RL DHFR; [7]): > 31.3 µM; IC50 (Tg DHFR; [8]): > 31.3 µM; IC50 (Tg DHFR; [9]): > 31.3 µM |
| COc1ccc(OC)c(NCc2c[nH]c3nc(N)nc(O)c23)c1 [Compound 408] | > 47 | > 47 | 2.2 | >21 | > 160 | 21 |  |
| COc1cc(NCc2c[nH]c3nc(N)[nH]c(=O)c23)cc(OC)c1 [Compound 409] | > 20 | > 20 | 2.6 | >8 | > 160 | 0 |  |
| COc1ccc(NCc2c[nH]c3nc(N)[nH]c(=O)c23)c(OC)c1 [Compound 410] | > 16 | > 16 | 7.1 | >1.4 | > 160 | 8 |  |
| COc1cc(NCc2c[nH]c3nc(N)nc(O)c23)cc(OC)c1OC [Compound 411] | > 22 | > 22 | 6.9 | >3 | > 290 | 8 |  |
| Nc1nc(O)c2c(CNc3cc(Cl)cc(Cl)c3)c[nH]c2n1 [Compound 413] | 66.2 | > 63 | 3 | >21 |  |  |  |
| Nc1nc2[nH]cc(CNc3ccc(Cl)cc3Cl)c2c(=O)[nH]1 [Compound 414] | > 15 | > 15 | 2.2 | >7 |  |  |  |
| Nc1nc(O)c2c(CNc3cccc(Cl)c3)c[nH]c2n1 [Compound 415] | > 26 | > 26 | 3.5 | >7 | > 180 | 26 |  |
| COc1ccc(OC)c(Cc2cnc3nc(N)nc(N)c3c2C)c1 [PTX, piritrexim, reference compound] |  |  |  |  |  |  | IC50 (RL DHFR; Table 7, read-out: RL DHFR IC50): 0.001 µM |
| CCOc1cc(Cc2cnc(N)nc2N)cc(OCC)c1-n1cccc1 [epiroprim, reference compound] |  |  |  |  |  |  | Selectivity ratio rl/pc (Pc DHFR [2]): 12.8; Selectivity ratio rl/tg (Tg DHFR; IC50 rlDHFR/IC50 tgDHFR): 70.6; IC50 (Tg DHFR; [9]): 0.48 µM |
